Test results as given in US8481551B2, “Gyrase and topoisomerase IV inhibitors” (Vertex Pharmaceuticals Incorporated, priority 2011, dated 2013).
Where a name gives a salt, the structure may show the parent alone. Read-outs that look alike come from different tables or passages of the source.

Experiments:
[1] = system: Peptostreptococcus spp.; assay: Gyrase MIC, agar dilution method (Protocol 3); assay type: cell-based; settings: 11 isolates tested
[2] = system: Mycobacterium avium; assay: MIC determination procedure for Mycobacterium species (Protocol 4); assay type: cell-based
[3] = system: Escherichia coli; assay: Gyrase MIC against Gram negatives, microdilution broth method (Protocol 2); assay type: cell-based; settings: for MIC90: 12 isolates tested
[4] = Seven-day oral (gavage) toxicity and toxicokinetics study in rats; assay type: in vivo, Crl:CD(SD) rats; settings: for Mean food consumption: Compound 13 once daily 100 or 200 mg/kg, Compound 23A twice daily 300 mg/kg, not considered adverse; for adverse observations / mean body weight: 7 days oral gavage; for histopathological findings: any dose regimen; for exposures for different dosage levels: toxicokinetics; for NOEL (No-Observable-Effect-Level) / dose levels without adverse toxicity: male, 7 days
Source text: Crl:CD(SD) rats were obtained from Charles River Laboratories of Stone Ridge, N.Y. The animals were laboratory bred and experimentally naïve. Rats were chosen because they are a species that is commonly used for nonclinical toxicity evaluations.
Forty rats (20 noncannulated males and 20 males with jugular vein cannulas) were ordered. From these animals, 15 noncannulated males and 15 cannulated males were used. Animals were as uniform in age as possible. The rats were prepubertal to young adult, approximately 9 weeks of age at initiation of dosing. Their supplier-calculated birth date was retained in the study records. The weight range for the animals at the time of allocation to groups was 218.5-306.3 g.
Animals received the test article or vehicle by oral gavage for 7 consecutive days and were terminated the day following completion of dosing. The first day of dosing was designated as Day 1 of the study. The animals were evaluated for changes in clinical signs, body weight, and other parameters as described below.
The vehicle and test article were administered by oral gavage once daily for 7 consecutive days at a dose volume of 10 mL/kg body weight for Group A and Groups B-D, respectively. The test article and vehicle were administered by oral gavage twice daily, approximately 8 hours apart, for 7 consecutive days at a dose volume of 10 mL/kg body weight for Group E and Group F, respectively. The actual volume administered to each animal was calculated and adjusted based on the most recent body weight of each animal.
The postdosing observations made during treatment occurred at the following times based on Cmax/Tmax for the two compounds from previous studies:
Prior to start of dosing, body weights were measured for randomization on Day 1. During the treatment, body weights were measured on Day 1 and Day 7. In addition, fasted body weights were measured prior to necropsy for calculation of organ/body weight ratios.
Throughout the study, food consumption was measured daily starting 3 days prior to start of dosing.
Blood samples for evaluation of hematology, coagulation, and serum chemistry parameters were collected from all animals from the retro-orbital plexus (under CO2/O2 anesthesia, for the main study animals) or jugular vein cannula (for the toxicokinetic animals) prior to necropsy. Due to residual heparin used to keep the cannulas patent for the toxicokinetic animals, coagulation samples from these rats, were not able to be analyzed. The animals were fasted overnight prior to blood collection. On the day of blood collection for clinical pathology analyses, the animals were not necropsied until after the blood was collected and the samples judged to be acceptable by the clinical pathology group.
An appropriate amount of blood was collected in EDTA-containing tubes. The whole blood samples were analyzed for the parameters indicated below in Table 11.
An appropriate amount of blood was collected in tubes containing sodium citrate and then centrifuged to obtain plasma for the determination of prothrombin time (PT) and activated partial thromboplastin time (APTT).
An appropriate amount of blood was collected in tubes without anticoagulant. The sample was allowed to clot and then was centrifuged to obtain serum. The serum was analyzed for the parameters indicated below in Table 12.
On the 1st and 7th day of dosing, blood samples (approximately 0.5 mL/sample) were collected from the jugular vein cannula for all toxicokinetic animals at the timepoints listed below into K3EDTA-containing tubes. […] Prior to each collection, a small sample of blood (with heparin blocking solution) was removed from the cannula and discarded. A new syringe was placed on the cannula, and the protocol-required sample was taken. The syringe with the blood sample was removed, and a new syringe with saline attached to the cannula. Blood volume was replaced with an equal volume of saline and then blocking solution placed in the cannula. […]

[5] = system: Moraxella catarrhalis; assay: Gyrase MIC against Gram negatives, microdilution broth method (Protocol 2); assay type: cell-based; settings: for MIC90 / MIC Range: Moraxella catarrhalis, 26 isolates tested
[6] = system: Haemophilus influenzae; assay: as above; assay type: cell-based; settings: for MIC90 / MIC Range: Haemophilus influenzae, 55 isolates tested
[7] = Pharmacokinetics, rat oral study; assay type: in vivo, Sprague Dawley rats; settings: male, Sprague Dawley, label = analyte; for Cmax: read-out: Cmax/C0
Source text: Pharmacokinetic Data Analysis.
Statistical Data Analysis.
Plasma concentration vs. time data was subjected to noncompartmental pharmacokinetic (PK) analysis.

[8] = ATCC25922, Escherichia coli ATCC 25922
[9] = ATCC25238, Moraxella catarrhalis ATCC 25238
[10] = ATCC49143, Moraxella catarrhalis ATCC 49143
[11] = ATCC49247, Haemophilus influenzae ATCC 49247
[12] = Haemophilus influenzae Rd0894 (AcrA-)
[13] = 300 mg/kg twice a day, compared to controls treated twice a day
[14] = plasma, 30 mg/kg, Compound W dosed orally 30 mg/kg in 0.5% MC
[15] = plasma, 100 mg/kg, Compound W dosed orally 100 mg/kg in 0.5% MC
[16] = plasma, 300 mg/kg, Compound W dosed orally 300 mg/kg in 0.5% MC
[17] = plasma, 300 mg/kg, Compound W dosed orally 300 mg/kg in 20% CAPT, 1% HPMC-AS, 1% PVP

Molecule CCNC(=O)Nc1nc2cc(-c3cnc(C(C)(C)O)nc3)cc([C@H]3CCCO3)c2[nH]1 [Compound 13, methanesulfonic acid salt of 1-ethyl-3-[5-[2-(1-hydroxy-1-methyl-ethyl)pyrimidin-5-yl]-7-[(2R)-tetrahydrofuran-2-yl]-1H-benzimidazol-2-yl]urea] has an MIC90 [1] greater than 16 µg/mL, an MIC ([2]; M. avium 3404.4) of 0.94 µg/mL and an MIC ([2]; M. avium Far) of 0.94 µg/mL. It also gave an MIC ([2]; Mycobacterium avium 103) of 0.47 µg/mL, an MIC90 [3] greater than 8 µg/mL and an MIC [3, 8] of 16 µg/mL. The MIC ([3]; Escherichia coli AG100 WT) was greater than 16 µg/mL, the MIC ([3]; Escherichia coli AG100 tolC) was 0.11 µg/mL and the MIC ([3]; Escherichia coli CHE30) was greater than 16 µg/mL. It also gave an MIC ([3]; Escherichia coli CHE30 tolC) of 0.5 µg/mL, an MIC ([3]; Escherichia coli MC4100) greater than 16 µg/mL and an MIC ([3]; Escherichia coli MC4100 tolC) of 1 µg/mL. The Mean food consumption [4] was “reduced during different intervals of the study”, the AUC at 7 day ([4]; Crl:CD(SD), rat, in vivo, male rats, 200 mg/kg once a day for 7 days, oral gavage) was 844000 ng·h/mL and the “adverse observations / mean body weight” value ([4]; male rats) was “No adverse observations or effects on mean body weight”. For the same molecule, the histopathological findings ([4]; male rats) was “No test article-related histopathological findings”, the “exposures for different dosage levels” value ([4]; male rats) was “dose related” and the “NOEL (No-Observable-Effect-Level)” value ([4]; Crl:CD(SD), rat, in vivo, po) was 200 mg/kg. The “dose levels without adverse toxicity” value ([4]; Crl:CD(SD), rat, in vivo, po) was “up to 200 mg/kg/day”, the MIC [5, 9] was 0.071 µg/mL and the MIC [5, 10] was 0.04 µg/mL. For the same molecule, the MIC90 [5] was 0.12 µg/mL, the “MIC Range” value [5] was 0.015 to 0.12 µg/mL and the MIC [6, 11] was 1 µg/mL. The MIC [6, 12] was 0.14 µg/mL, the MIC90 [6] was 2 µg/mL and the “MIC Range” value [6] was 0.25 to 8 µg/mL.

CCNC(=O)Nc1nc2cc(-c3cnc(C(C)(C)O)nc3)c(F)c([C@H]3CCCO3)c2[nH]1 [Compound 23, 1-ethyl-3-[6-fluoro-5-[2-(1-hydroxy-1-methyl-ethyl)pyrimidin-5-yl]-7-[(2R)-tetrahydrofuran-2-yl]-1H-benzimidazol-2-yl]urea] showed an AUC ([7]; in vivo, 3 mg/kg, rat plasma, Compound W dosed orally 3 mg/kg in 0.5% MC, read-out: AUC) of 311 ng·h/mL, a Cmax ([7]; in vivo, 3 mg/kg, rat plasma, Compound W dosed orally 3 mg/kg in 0.5% MC) of 117 ng/mL and an AUC ([7]; in vivo, 30 mg/kg, rat plasma, Compound W dosed orally 30 mg/kg in 0.5% MC, read-out: AUC) of 22500 ng·h/mL. It also gave a Cmax ([7]; in vivo, 30 mg/kg, rat plasma, Compound W dosed orally 30 mg/kg in 0.5% MC) of 2900 ng/mL, an AUC ([7]; in vivo, 100 mg/kg, rat plasma, Compound W dosed orally 100 mg/kg in 0.5% MC, read-out: AUC) of 77100 ng·h/mL and a Cmax ([7]; in vivo, 100 mg/kg, rat plasma, Compound W dosed orally 100 mg/kg in 0.5% MC) of 6600 ng/mL. The AUC ([7]; in vivo, 300 mg/kg, rat plasma, Compound W dosed orally 300 mg/kg in 0.5% MC, read-out: AUC) was 223000 ng·h/mL, the Cmax ([7]; in vivo, 300 mg/kg, rat plasma, Compound W dosed orally 300 mg/kg in 0.5% MC) was 11700 ng/mL and the AUC ([7]; in vivo, 300 mg/kg, rat plasma, Compound W dosed orally 300 mg/kg in 20% CAPT, 1% HPMC-AS, 1% PVP, read-out: AUC) was 295000 ng·h/mL. The Cmax ([7]; in vivo, 300 mg/kg, rat plasma, Compound W dosed orally 300 mg/kg in 20% CAPT, 1% HPMC-AS, 1% PVP) was 16200 ng/mL, the AUC ([7]; plasma, 3 mg/kg, Compound W dosed orally 3 mg/kg in 0.5% MC, read-out: AUCextrap) was 314 ng·h/mL and the AUC ([7]; plasma, 30 mg/kg, Compound W dosed orally 30 mg/kg in 0.5% MC, read-out: AUCextrap) was 22600 ng·h/mL. The AUC ([7]; plasma, 100 mg/kg, Compound W dosed orally 100 mg/kg in 0.5% MC, read-out: AUCextrap) was 77400 ng·h/mL.

Molecule CCNC(=O)Nc1nc2cc(-c3cnc(C(C)(C)O)nc3)c(F)c([C@H]3CCCO3)c2[nH]1 [Compound 23A, methanesulfonic acid salt of 1-ethyl-3-[6-fluoro-5-[2-(1-hydroxy-1-methyl-ethyl)pyrimidin-5-yl]-7-[(2R)-tetrahydrofuran-2-yl]-1H-benzimidazol-2-yl]urea] has an MIC90 [1] greater than 16 µg/mL, an MIC ([2]; M. avium 3404.4) of 0.23 µg/mL and an MIC ([2]; M. avium Far) of 0.23 µg/mL. The MIC ([2]; Mycobacterium avium 103) was 0.18 µg/mL, the MIC90 [3] was greater than 8 µg/mL and the MIC [3, 8] was 12 µg/mL. The MIC ([3]; Escherichia coli AG100 WT) was 4 µg/mL, the MIC ([3]; Escherichia coli AG100 tolC) was 0.063 µg/mL and the MIC ([3]; Escherichia coli CHE30) was 8 µg/mL. It also gave an MIC ([3]; Escherichia coli CHE30 tolC) of 0.125 µg/mL, an MIC ([3]; Escherichia coli MC4100) greater than 16 µg/mL and an MIC ([3]; Escherichia coli MC4100 tolC) of 0.25 µg/mL. The “mean ALT” value [4, 13] was “statistically higher”, the “mean AST” value [4, 13] was “statistically higher” and the Mean food consumption [4] was “reduced during different intervals of the study”. The NOAEL at 7 days ([4]; Crl:CD(SD), rat, in vivo, po, 300 mg/kg, male rats, twice a day for 7 days orally via gavage, read-out: NOAEL (No-Observable-Adverse-Effect-Level)) was 300 mg/kg, the AUC ([4]; Crl:CD(SD), rat, in vivo, male rats, 100 mg/kg once a day for 7 days, oral gavage) was 82000 ng·h/mL and the AUC ([4]; Crl:CD(SD), rat, in vivo, male rats, 300 mg/kg twice a day for 7 days, oral gavage) was 291000 ng·h/mL. For the same molecule, the “adverse observations / mean body weight” value ([4]; male rats) was “No adverse observations or effects on mean body weight”, the histopathological findings ([4]; male rats) was “No test article-related histopathological findings” and the “exposures for different dosage levels” value ([4]; male rats) was “dose related”. For the same molecule, the “NOEL (No-Observable-Effect-Level)” value ([4]; Crl:CD(SD), rat, in vivo, po) was 100 mg/kg, the “dose levels without adverse toxicity” value ([4]; Crl:CD(SD), rat, in vivo, po) was no more than 600 mg/kg/day and the MIC [5, 9] was no more than 0.016 µg/mL. For the same molecule, the MIC [5, 10] was no more than 0.016 µg/mL, the MIC90 [5] was 0.03 µg/mL and the “MIC Range” value [5] was “≦0.004-0.03^ μg/ml”. It also gave an MIC [6, 11] of 0.5 µg/mL, an MIC [6, 12] of 0.041 µg/mL and an MIC90 [6] of 1 µg/mL. The “MIC Range” value [6] was 0.06-2^ μg/ml.

With CCNC(=O)Nc1nc2cc(-c3cnc(C(C)(C)OP(=O)([O-])[O-])nc3)c(F)c([C@H]3CCCO3)c2[nH]1.[Na+].[Na+] [Compound W, disodium (R)-2-(5-(2-(3-ethylureido)-6-fluoro-7-(tetrahydrofuran-2-yl)-1H-benzo[d]imidazol-5-yl)pyrimidin-2-yl)propan-2-yl phosphate] the MIC ([3]; Escherichia coli AG100 WT) was greater than 16 µg/mL, the Tmax [7, 14] was 3.3 h and the AUC ([7]; plasma, 30 mg/kg, Compound W dosed orally 30 mg/kg in 0.5% MC, read-out: AUC) was 178 ng·h/mL. It also gave a Cmax [7, 14] of 22 ng/mL, a Tmax [7, 15] of 0.8 h and an AUC ([7]; plasma, 100 mg/kg, Compound W dosed orally 100 mg/kg in 0.5% MC, read-out: AUC) of 61 ng·h/mL. For the same molecule, the Cmax [7, 15] was 21 ng/mL, the Tmax [7, 16] was 1.2 h and the AUC ([7]; plasma, 300 mg/kg, Compound W dosed orally 300 mg/kg in 0.5% MC, read-out: AUC) was 324 ng·h/mL. For the same molecule, the Cmax [7, 16] was 2330 ng/mL, the Tmax [7, 17] was 1.8 h and the AUC ([7]; plasma, 300 mg/kg, Compound W dosed orally 300 mg/kg in 20% CAPT, 1% HPMC-AS, 1% PVP, read-out: AUC) was 2370 ng·h/mL. It also gave a Cmax [7, 17] of 600 ng/mL and an MIC [6, 12] of 0.25 µg/mL.
